Data as given in patent US8815891B2, “Tricyclic derivative or pharmaceutically acceptable salts thereof, preparation method thereof, and pharmaceutical composition containing the same” (Je Il Pharmaceutical Co., Ltd., priority 2008, dated 2014).
pIC50: −log10 of the molar value. Structures can show the parent of a compound that is named as a salt. Where two headings read alike, the source gives them in different places.

What was measured:
[1] = molecular target: PARP-1 enzyme (Homo sapiens (Human), UniProt P09874); assay: Poly(ADP-ribose)polymerase [PARP-1] enzyme inhibitory activity (Trevigen PARP Assay kit); assay type: biochemical; conditions: read-out: PARP-1 Inhibitory activity IC50
Sequence of PARP-1 enzyme (Homo sapiens (Human), UniProt P09874) (P09874 whole entry): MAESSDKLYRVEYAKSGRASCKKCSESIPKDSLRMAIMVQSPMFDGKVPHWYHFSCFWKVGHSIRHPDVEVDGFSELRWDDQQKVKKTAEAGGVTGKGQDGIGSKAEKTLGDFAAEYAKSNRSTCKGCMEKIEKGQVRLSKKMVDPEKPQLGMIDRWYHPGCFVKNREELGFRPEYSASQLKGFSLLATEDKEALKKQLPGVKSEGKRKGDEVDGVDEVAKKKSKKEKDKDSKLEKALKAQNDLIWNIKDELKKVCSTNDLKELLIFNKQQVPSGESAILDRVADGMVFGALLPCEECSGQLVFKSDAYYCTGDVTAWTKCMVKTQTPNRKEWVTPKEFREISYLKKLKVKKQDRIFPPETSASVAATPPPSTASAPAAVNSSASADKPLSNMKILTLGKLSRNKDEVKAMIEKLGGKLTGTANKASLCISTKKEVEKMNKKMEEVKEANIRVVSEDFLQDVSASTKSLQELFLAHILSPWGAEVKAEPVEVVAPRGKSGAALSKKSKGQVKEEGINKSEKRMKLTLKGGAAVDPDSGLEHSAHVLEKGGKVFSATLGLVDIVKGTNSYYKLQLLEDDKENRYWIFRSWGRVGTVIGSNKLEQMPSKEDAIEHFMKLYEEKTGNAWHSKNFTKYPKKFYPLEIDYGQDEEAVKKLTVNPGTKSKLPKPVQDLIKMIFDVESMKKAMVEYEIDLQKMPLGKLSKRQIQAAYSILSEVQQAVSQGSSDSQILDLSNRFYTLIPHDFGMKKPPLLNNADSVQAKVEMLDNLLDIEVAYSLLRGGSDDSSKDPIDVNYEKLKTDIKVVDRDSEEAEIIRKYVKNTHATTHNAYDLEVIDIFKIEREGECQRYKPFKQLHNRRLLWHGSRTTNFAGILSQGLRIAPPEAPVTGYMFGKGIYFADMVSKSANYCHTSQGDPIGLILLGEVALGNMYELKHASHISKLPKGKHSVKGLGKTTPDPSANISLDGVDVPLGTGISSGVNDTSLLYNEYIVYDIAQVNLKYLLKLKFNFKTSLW
How it was run: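 On histone-coated plates, PARP-1 (0.12 unit/well) reacted with compound for 30 min at 25 °C in a 2× cocktail of 1.95 mM NAD+, 50 μM biotinylated NAD+ and activated DNA (Tris pH 8.0, 25 mM MgCl2). Biotin-ribosylated histone was detected with streptavidin-HRP and TACS-Sapphire substrate, stopped with HCl and read at 450 nm.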

[2] = molecular target: PARP-1 enzyme (Cricetulus griseus (Chinese hamster) (Cricetulus barabensis griseus), UniProt Q9R152); assay: Intracellular PARP inhibitory activity (NAD(P)H released by MMS-treated CHO-K1 cells); assay type: cell-based
Sequence of PARP-1 enzyme (Cricetulus griseus (Chinese hamster) (Cricetulus barabensis griseus), UniProt Q9R152) (Q9R152 whole entry): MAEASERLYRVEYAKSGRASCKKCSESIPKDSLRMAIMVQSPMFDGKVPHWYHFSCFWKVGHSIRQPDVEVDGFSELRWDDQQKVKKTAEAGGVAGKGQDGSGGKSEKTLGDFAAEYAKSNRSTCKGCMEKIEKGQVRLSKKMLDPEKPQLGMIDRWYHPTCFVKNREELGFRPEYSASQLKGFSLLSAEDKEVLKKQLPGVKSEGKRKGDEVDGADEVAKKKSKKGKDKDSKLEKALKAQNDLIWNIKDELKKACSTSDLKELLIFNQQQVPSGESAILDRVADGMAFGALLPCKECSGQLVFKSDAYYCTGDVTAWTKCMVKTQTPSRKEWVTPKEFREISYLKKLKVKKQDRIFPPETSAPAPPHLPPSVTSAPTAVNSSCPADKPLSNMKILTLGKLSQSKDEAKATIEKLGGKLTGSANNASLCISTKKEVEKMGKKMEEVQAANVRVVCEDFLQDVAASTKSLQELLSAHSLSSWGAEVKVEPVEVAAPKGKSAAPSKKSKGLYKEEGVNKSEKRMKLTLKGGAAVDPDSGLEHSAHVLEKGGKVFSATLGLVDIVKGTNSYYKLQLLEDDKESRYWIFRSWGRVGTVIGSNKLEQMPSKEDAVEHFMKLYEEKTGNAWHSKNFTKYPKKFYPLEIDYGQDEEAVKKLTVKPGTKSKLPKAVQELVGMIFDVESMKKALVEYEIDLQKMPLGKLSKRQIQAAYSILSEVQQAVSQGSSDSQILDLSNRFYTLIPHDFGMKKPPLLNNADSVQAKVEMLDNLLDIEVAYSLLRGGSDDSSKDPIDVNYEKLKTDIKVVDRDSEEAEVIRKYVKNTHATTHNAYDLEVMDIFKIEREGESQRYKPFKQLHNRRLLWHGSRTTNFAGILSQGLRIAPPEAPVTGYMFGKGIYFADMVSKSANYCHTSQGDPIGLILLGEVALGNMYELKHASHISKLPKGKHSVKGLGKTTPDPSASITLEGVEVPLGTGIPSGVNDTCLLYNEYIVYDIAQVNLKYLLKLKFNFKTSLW
Description: In order to verify the ability of the compounds of the present invention to inhibit the PARP-1 enzyme activity, the amount of NAD(P)H accumulated on cell culture medium was measured.
The Chinese hamster ovary cells (CHO-K1) were cultured in RPMI1640 culture medium containing 10% fetal bovine serum (FBS). The cultured CHO-K1 cells were seeded into 96 well plate by 2.9×10^3 cells/well, and cultured for 16 hours under culture condition of 37° C., 5% CO2. After the culture, the cells were treated with the compounds of the Examples at varying concentrations, and cultured at 37° C. for 2 hours. […] The amount of […] released to the culture medium 3, 4, 5 hours after the treatment with MMS was quantified at 450 nm using Wallac EnVision™ (PerkinElmer Oy, Turku, Finland). The transference numbers of the compounds at varying concentrations according to the present invention are the average values obtained from four wells, and the results were calculated using regression analysis.
The Chinese hamster ovary cells (CHO-K1) were treated with the compounds at varying concentration according to the present invention, and the amount of NAD(P)H released into the culture medium 4 hours after the MMS treatment was quantified.

[3] = PARP-1 enzyme, histone ribosylation, 450 nm

| SMILES | pIC50 [1, 3] | pIC50 [2] | pIC50 [1] | pIC50 ([2]; CHO-K1 cells, NAD(P)H released 4 hours after MMS treatment, read-out: PARP-1 Inhibitory activity IC50) |
| --- | --- | --- | --- | --- |
| CCCOc1cc(CN(C)C)cc2[nH]c(=O)c3c(c12)NCCC3 [Example 110, 8-[(Dimethylamino)methyl)]-10-propoxy-1,2,3,4-tetrahydrobenzo[h][1,6]naphthyridine-5(6H)-one dihydrochloride] | 7.10 | 7.05 | – | – |
| CN(CCO)Cc1ccc2c3c(c(=O)[nH]c2c1)CCCN3 [Example 53, 8-{[(2-Hydroxyethyl)(methyl)amino]methyl}-1,2,3,4-tetrahydrobenzo[h][1,6]naphthyridine-5(6H)-one dihydrochloride] | – | 6.54 | 7.30 | – |
| COc1cc(CN2CCSCC2)cc2[nH]c(=O)c3c(c12)NCCC3 [Example 106, 10-Methoxy-8-(thiomorpholinomethyl)-1,2,3,4-tetrahydrobenzo[h][1,6]naphthyridine-5(6H)-one dihydrochloride] | – | 6.54 | 7.05 | – |
| CCOc1ccc2[nH]c(=O)c3c(c2c1)NCCC3 [Example 20, 9-Ethoxy-1,2,3,4-tetrahydrobenzo[h][1,6]naphthyridine-5(6H)-one hydrochloride] | 5.81 | 5.89 | – | – |
| COc1cc(CNC(C)(C)C)cc2[nH]c(=O)c3c(c12)NCCC3 [Example 87, 8-[(t-Butylamino)methyl]-10-methoxy-1,2,3,4-tetrahydrobenzo[h][1,6]naphthyridine-5(6H)-one dihydrochloride] | – | 6.09 | 6.21 | – |
| CC(c1ccc2c3c(c(=O)[nH]c2c1)CCCN3)N(C)C (centres unmarked) [Example 38, 8-[1-(Dimethylamino)ethyl]-1,2,3,4-tetrahydrobenzo[h][1,6]naphthyridine-5(6H)-one dihydrochloride] | > 6.00 | 6.85 | 7.30 | – |
| CCCN(C)Cc1ccc2c3c(c(=O)[nH]c2c1)CCCN3 [Example 56, 8-[(Methyl(propyl)amino)methyl]-1,2,3,4-tetrahydrobenzo[h][1,6]naphthyridine-5(6H)-one dihydrochloride] | – | 6.33 | 6.74 | – |
| O=c1[nH]c2ccc(OCCN3CCCCC3)cc2c2c1CCCN2 [Example 17, 9-[2-(Piperidine-1yl)ethoxy]-1,2,3,4-tetrahydrobenzo[h][1,6]naphthyridine-5(6H)-one dihydrochloride] | > 6.00 | 5.79 | 6.34 | – |
| CCNCc1ccc2c3c(c(=O)[nH]c2c1)CCCN3 [Example 43, 8-[(Ethylamino)methyl]-1,2,3,4-tetrahydrobenzo[h][1,6]naphthyridine-5(6H)-one dihydrochloride] | – | 5.75 | 6.80 | – |
| O=c1[nH]c2cc(CN3CCCCC3)ccc2c2c1CCCN2 [Example 48, 8-(Piperidine-1-ylmethyl)-1,2,3,4-tetrahydrobenzo[h][1,6]naphthyridine-5(6H)-one dihydrochloride] | – | 6.37 | 6.89 | – |
| CN(C)c1ccc2c3c(c(=O)[nH]c2c1)CCCN3 [Example 37, 8-(Dimethylamino)-1,2,3,4-tetrahydrobenzo[h][1,6]naphthyridine-5(6H)-one hydrochloride] | < 5.40 | – | – | 5.31 |
| COCCOc1cc(CN2CCOCC2)cc2[nH]c(=O)c3c(c12)NCCC3 [Example 117, 10-(2-Methoxyetoxy)-8-(morpholinomethyl)-1,2,3,4-tetrahydrobenzo[h][1,6]naphthyridine-5(6H)-one dihydrochloride] | 6.21 | 5.20 | – | – |
| COc1cc(CN)cc2[nH]c(=O)c3c(c12)NCCC3 [Example 109, 8-(Aminomethyl)-10-methoxy-1,2,3,4-tetrahydrobenzo[h][1,6]naphthyridine-5(6H)-one dihydrochloride] | – | 6.03 | 7.15 | – |
| CCOc1cc(CNC)cc2[nH]c(=O)c3c(c12)NCCC3 [Example 103, 10-Etoxy-8-[(methylamino)methyl]-1,2,3,4-tetrahydrobenzo[h][1,6]naphthyridine-5(6H)-one dihydrochloride] | 6.92 | 6.09 | – | – |
| CN(C)CCc1ccc2c3c(c(=O)[nH]c2c1)CCCN3 [Example 32, 8-[2-(Dimethylamino)ethyl]-1,2,3,4-tetrahydrobenzo[h][1,6]naphthyridine-5(6H)-one dihydrochloride] | > 6.00 | 5.50 | 6.64 | – |
| CCNCc1cc(OCC)c2c3c(c(=O)[nH]c2c1)CCCN3 [Example 104, 10-Etoxy-8-[(ethylamino)methyl]-1,2,3,4-tetrahydrobenzo[h][1,6]naphthyridine-5(6H)-one dihydrochloride] | 7.22 | 5.78 | – | – |
| CCCOc1cc(CN2CCOCC2)cc2[nH]c(=O)c3c(c12)NCCC3 [Example 111, 8-(Morpholinomethyl)-10-propoxy-1,2,3,4-tetrahydrobenzo[h][1,6]naphthyridine-5(6H)-one dihydrochloride] | – | 5.88 | 6.02 | – |
| CN(C)Cc1ccc2c3c(c(=O)[nH]c2c1)CCCN3 [Example 41, 8-[(Dimethylamino)methyl]-1,2,3,4-tetrahydrobenzo[h][1,6]naphthyridine-5(6H)-one dihydrochloride] | – | 7.30 | 7.40 | – |
| COCCOc1ccc2[nH]c(=O)c3c(c2c1)NCCC3 [Example 18, 9-(2-Methoxyethoxy)-1,2,3,4-tetrahydrobenzo[h][1,6]naphthyridine-5(6H)-one hydrochloride] | 5.82 | 5.43 | – | – |
